Test results taken from patent US20250170133A1, “PHARMACEUTICAL COMBINATIONS AND METHODS OF USE OF AMINO-PYRROLOPYRIMIDINONE COMPOUND” (Merck Sharp & Dohme LLC, priority 2022, published 2025).

Columns and labels:
[1] = system: BTK^Y223 autophosphorylation; experiment: Immunoblot of anti-IgM stimulated primary CLL cells: pBTK; type: cell-based, human; conditions: ibrutinib (1 μM), 24 hr, anti-IgM 15 min, normalized to GAPDH
BCL-2 and BCL-xL = experiment: BH3 profiling of primary CLL cells from nemtabrutinib treated patients (cytochrome c release); type: cell-based, human; conditions: samples from 3 nemtabrutinib treated patients, co-cultured with NK Tert stromal cells
From the text: For FIG. 1F, primary CLL cells from nemtabrutinib treated patients were co-cultured with NK Tert stromal cells before performing BH3 profiling using BIM, BAD, MS-1, Y4ek, and PUMA2A peptides. Baseline cytochrome c release measured in DMSO treated cells has been subtracted from all test conditions and controls presented. Cytochrome c release in response to interaction with BIM, BAD, and Y4ek peptides indicates cellular dependency on BCL-2 and BCL-xL. A linear mixed effect model was used to analyze raw data and p values were adjusted for multiple comparisons using Tukey's method. All statistics represented are in comparison to DMSO treated control (*, p<0.05, **, p<0.01, ***, p<0.001).

BTK's downstream targets = conditions: cited from earlier work
Primary CLL cells = experiment: Primary CLL cell viability by flow cytometry following Annexin V/PI staining; type: cell-based, human; conditions: BTKi 1 μM added to venetoclax 5 nM; ibrutinib washed out after 1 hr; total incubation 24 hr
Protocol: Cell viability was assessed by flow cytometry following Annexin V/PI staining. Data are normalized to DMSO control. A linear mixed effect model was used to analyze raw data and p values were adjusted for multiple comparisons using Tukey's method (*, p<0.05, **, pS0.01, ***, pS0.001).

[2] = system: Eμ-TCL1 adoptive transfer CLL mouse model; experiment: Eμ-TCL1 adoptive transfer CLL mouse model, survival; type: in vivo, C57BL/6NTac mice; conditions: daily oral gavage; venetoclax 100 mg/kg, nemtabrutinib 75 mg/kg, ibrutinib 25 mg/kg; 48 mice with BCR-dependent disease
From the text: (Bichi R, et al. Proc Natl Acad Sci USA. 2002; 99(10):6955-60). For FIG. 2A, splenocytes from a Eμ-TCL1 donor mouse were engrafted into 93 C57BL/6NTac mice via tail vein injection. Recipient mice were randomly enrolled into treatment groups after developing CD5+CD19+ disease as assessed by flow cytometry of peripheral blood. […] Due to the large study size, splenocytes from multiple E-TCL1 donors were needed to engraft C57BL/6NTac mice. Splenocytes from 4 donors were engrafted into groups of 48, 25, 17, and 3 recipient mice, respectively.
Peripheral blood disease progression was monitored weekly via flow cytometry and was reported as % CD5+CD19+ of CD45+ cells. (FIG. 2B). […] The survival differences of 48 mice engrafted with splenocytes from a single donor with BCR-dependent disease were assessed.

ERK phosphorylation = experiment: Immunoblot of anti-IgM stimulated primary CLL cells: pERK; type: cell-based, human; conditions: nemtabrutinib vs ibrutinib (1 μM), 24 hr, anti-IgM 15 min, normalized to GAPDH
Protocol: The effects of combining venetoclax and BTKi's on BCR signaling can be seen in FIG. 1B. […] Cells were stimulated with 10 μg plate-bound anti-IgM for 15 min before collection of whole cell lysate and analysis using SDS-PAGE.
For FIG. 1C to IE, all immunoblots of primary CLL patient samples were quantified using densitometry software (AlphaView). Protein levels (FIG. 1C: pBTK, FIG. 1D: pERK, FIG. 1E: MCL-1) normalized to GAPDH loading control are reported as fold change over vehicle control. A linear mixed effect model was used to analyze raw data normalized to GAPDH loading control and p values were adjusted for multiple comparisons using Tukey's method (*, p<0.05, ** p<0.01, ***, p<0.001).

| Compound | autophosphorylation of BTK^Y223 vs stimulated vehicle [1] | cytochrome c release in response to BIM, BAD and Y4ek peptides (BCL-2 and BCL-xL) | inhibition of BTK's downstream targets compared to ibrutinib (BTK's downstream targets) | increase in cytotoxicity compared to venetoclax alone (Primary CLL cells) [%] | median survival [2] [days] | ERK phosphorylation (ERK phosphorylation) |
| --- | --- | --- | --- | --- | --- | --- |
| O=C(c1ccc(Oc2ccccc2)cc1Cl)c1c[nH]c2ncnc(N[C@@H]3CC[C@@H](CO)OC3)c12 [nemtabrutinib] | significantly inhibited | maintain dependence on BCL2 and BCL-xL | greater inhibition | 10 | 81.5 | inhibited to a more significant degree |
| CC1(C)CCC(CN2CCN(c3ccc(C(=O)NS(=O)(=O)c4ccc(NCC5CCOCC5)c([N+](=O)[O-])c4)c(Oc4cnc5[nH]ccc5c4)c3)CC2)=C(c2ccc(Cl)cc2)C1 [venetoclax, reference compound] |  |  |  |  | 34.5 |  |
